Test [1] relates to U87MG cells. Nature of the test: Crystal violet cell viability, U87MG glioma cells. In kind it is cell-based, human. Here is the method:
(§1) A172 and U87MG cells were cultured in DMEM-Eagle medium supplemented with 4 mmol/L L-glutamine, 100 units/ml penicillin and 100 μg/ml streptomycin, and 10% FBS Charcoal Stripped (Biological Industries, Israel). The T98G cells were cultured in Eagle's minimum essential medium supplemented with 4 mmol/L L-glutamine, 100 units/ml penicillin and 100 μg/ml streptomycin. To avoid the influence of FBS derived steroid hormone on AR, the cell media were supplemented with 10% charcoal/dextran-treated (stripped) FBS (Biological Industries). The cells were maintained in a humidified incubator at 37° C. in 5% CO2.

The test system of test [2] is T98G cells. The experiment in a line: Crystal violet cell viability, T98G glioma cells (single agents and combinations). Here is the method:
as §1
The effect of combination therapies that involve anti-AR signaling agents together with agents that target EGFR on AR modulation was examined in glial tumor cells expressing a ligand independent AR splice variant.

Test [3] relates to A172 cells. The experiment in a line: Crystal violet cell viability, A172 glioma cells. In kind it is cell-based. Here is the method: as §1
The mark [4] stands for this setting: Homo sapiens, 72 h, read-out: Cell viability, percentage of cells treated with DHT.
The mark [5] stands for this setting: Homo sapiens, 72 h, read-out: Cell viability, percentage of cells treated with vehicle.

On to `CC(O)(CS(=O)(=O)c1ccc(F)cc1)C(=O)Nc1ccc(C#N)c(C(F)(F)F)c1` (stereo not shown) [bicalutamide], for which the viability at 20 µM in test [1] (Homo sapiens, U-87 MG, 20 uM, 72 hrs, with 10 μM DHT, read-out: Cell viability, percentage of cells treated with DHT) worked out at 83%; in test [2] (setting [4]) it was 90%; in test [3] (Homo sapiens, A 172, A172, 20 uM, 72 hrs, with 10 μM DHT, read-out: Cell viability, percentage of cells treated with DHT), 90%. In addition, the viability at 80 µM was found to be 31% in test [1] (Homo sapiens, U-87 MG, 80 uM, 72 hrs, with 10 μM DHT, read-out: Cell viability, percentage of cells treated with DHT); 59% in test [2] (setting [4]); 43% in test [3] (Homo sapiens, A 172, A172, 80 uM, 72 hrs, with 10 μM DHT, read-out: Cell viability, percentage of cells treated with DHT).
Take `CN(C)C/C=C/C(=O)Nc1cc2c(Nc3ccc(F)c(Cl)c3)ncnc2cc1O[C@H]1CCOC1` [afatinib]: in test [2] (setting [5]), the viability at 1.25 µM turned out to be 92% and the viability at 5 µM is 47%.
Take `C#Cc1cccc(Nc2ncnc3cc(OCCOC)c(OCCOC)cc23)c1` [erlotinib]: in test [2] (setting [5]), the viability at 1.25 µM was found to be 94% and the viability at 10 µM was found to be 63%.
Consider `C[C@]12CCC(=O)C[C@@H]1CC[C@@H]1[C@@H]2CC[C@]2(C)[C@@H](O)CC[C@@H]12` [DHT, 5α-dihydrotestosterone], for which the “Effect of DHT on cell viability versus vehicle” value is on record as “no effect on cell viability” in test [1] (10 μM DHT, vehicle 0.15% ETOH); “no effect on cell viability” in test [2] (10 μM DHT, vehicle 0.15% ETOH); “no effect on cell viability” in test [3] (A172, 10 μM DHT, vehicle 0.15% ETOH).

Values taken from US11478453B2, “Treatment for glioblastoma” (HADASIT MEDICAL RESEARCH SERVICES AND DEVELOPMENT LTD., priority 2016, dated 2022).
